# Laboratory results from US7728036B2, “Methods for delivery of catecholic butanes for treatment of tumors” (priority 2003, dated 2010).
# Legend:
# Solubility character = type: physicochemical
# [1] = system: HT-29 colorectal carcinoma cells; assay: Xenograft assay of human tumors in athymic nude mice, HT-29; type: in vivo
# Source text: (§1) Xenograft Assay of Human Tumors.
# (§2) Control mice received vehicle only.
# [2] = system: refractory head and neck carcinomas; type: in vivo, human
# Source text: Eight male subjects and one […] participated. Mean weight was 139 lbs. (range 102 to 219 lbs.).
# [3] = Tissue distribution after short-term oral feeding of M4N (HPLC); type: in vivo, mice
# Experimental: Tissue Distribution and Toxicity Analysis Following Short-Term and Long-Term Oral Feeding. For short-term feeding experiments, 30 mg of M4N dissolved in 300 μL castor oil was orally administered to each of 6 mice. At 2 h, 4 h, and 8 h post-administration time points, 2 mice were sacrificed, the organs and blood were collected, and the M4N extracted and quantitated as described below. In long-term feeding experiments, mice were fed food balls consisting of M4N dissolved in corn oil and Basal Mix (Harlan Teklad; Madison, Wis.; Cat. # TD 02273) for 14 weeks. Food balls weighed 9 g and contained 242 mg M4N each. Two mice, one male and one female, were reserved for long-term drug retention studies; and fourteen mice, both male and female, were used for long-term drug toxicity studies. At the end of feeding, mice were sacrificed, the organs and blood were collected, and the M4N extracted and quantitated as described below.
# M4N Extraction and HPLC Analysis Following Oral Feeding. Organs and blood were harvested from M4N-fed mice, then frozen overnight at −80° C. Prior to freezing, gastro-intestinal organs (stomach, small intestine, colon) were cut open longitudinally and washed thoroughly with PBS to remove any contents. The following day, organs were cut into small pieces on dry ice with a razor blade, dried in a Speed-vac, then crushed into a rough powder using a mortar and pestle. Samples were extracted overnight in 100% ethanol with shaking. Samples were centrifuged and the supernatant collected. Pellets were extracted two more times in 100% ethanol overnight with shaking. The pooled ethanol extracts were evaporated on bench top for several days, then re-extracted with ethyl acetate, and dried completely in a Speed-vac. The dried samples were then analyzed quantitatively by HPLC and M4N was identified by mass spectroscopy using pure M4N as a standard.
# In samples from short-term fed mice, dialysis was performed to further purify M4N from the tissue extracts. Dried ethanol extracts were redissolved in 1.5 mL 100% EtOH and centrifuged for 5 min. The supernatant was collected and the pellet was resuspended in 0.4 mL ethanol and centrifuged again. The supernatant was pooled with the previous supernatant, then dialyzed overnight against 150 mL 100% EtOH. The dialysates were dried on bench top and in a speed-vac, then analyzed by HPLC.
# HPLC Quantitation of M4N. Samples from a single mouse at each time point were sent to KP Pharmaceuticals (Bloomington, Ind.) for HPLC analysis. HPLC conditions were described as follows: 35%:0.1% TFA in H2O, 65%=“CAN.” The M4N standard was prepared by diluting 10.01 mg M4N in 100 mL of CAN, then sonicating for 5 min. (2002 ng/injection). The samples were prepared by adding 400 μL EtOH and sonicating for 2 min. or until complete dissolution was achieved. The injection volume for the samples was 100 μL.
# The convenience and ease of oral administration, however, especially in the case of long-term post-surgical adjuvant treatment, would considerably facilitate drug administration to patients and would improve patient quality of life. Thus, in addition to i.p. and i.v. administration, the ability to systemically distribute M4N by oral administration was also investigated. In both short-term (<8 hours) feeding experiments and long-term (14 weeks) feeding experiments, M4N levels in various tissues and their in vivo toxicity was assessed. In short-term experiments, mice were fed 30 mg of M4N dissolved in castor oil (100 mg M4N/mL castor oil), and at 2, 4, and 8 hours post-feeding, the quantity of M4N present in various tissues was determined by HPLC.
# head and neck cancer = assay: Ex-US clinical study in head and neck cancer, daily M4N with or without G4N followed by surgical resection; type: in vivo, human
# [4] = system: Hep3B hepatocellular carcinoma cells; assay: Xenograft assay of human tumors in athymic nude mice, Hep3B; type: in vivo
# Source text: as §1, §2
# [5] = system: MCF-7 breast adenocarcinoma cells; assay: Xenograft assay of human tumors in athymic nude mice, MCF-7; type: in vivo
# Source text: as §1, §2
# [6] = HT-29, of 11 M4N-treated tumors, 21 days i.p. treatment
# [7] = patients that completed the treatment
# [8] = Hep 3B, of 7 M4N-treated tumors, 21 days i.p. treatment
# [9] = MCF-7, of 10 M4N-treated tumors, 21 days i.p. treatment
compound,measurement,setting,value
"COc1ccc(C[C@@H](C)[C@@H](C)Cc2ccc(OC)c(OC)c2)cc1OC [M4N, meso-1,4-bis(3,4-dimethoxyphenyl)-2,3-dimethylbutane]",Solubility in dimethyl sulfoxide,Solubility character,soluble in dimethyl sulfoxide
same,Water solubility / hydrophilic or lipophilic character,Solubility character,hydrophobic or lipophilic
same,Reduction in mean tumor volume versus control,"[1]; HT-29, after 21 days systemic M4N treatment",70%
same,DOTV: number of tumors with decrease in volume from the original tumor volume,[1]; [6],3
same,IOTV: number of tumors with increase in volume from the original tumor volume,[1]; [6],8
same,"Tumor Volume Increase (%) - 21 Days Treatment, M4N-Treatment","[1]; HT-29 xenograft, 2 mg M4N i.p. daily for 3 weeks",787%
same,Ratio of Mean M4N-Treated Tumor Size to Control Tumor Size,"[1]; HT-29 xenograft, 2 mg M4N i.p. daily, 21 days",29.4%
same,Damage to healthy tissue surrounding the tumor,[2]; in vivo,No damage
same,Dose delivered without drug-related toxicity,[2]; in vivo,up to 495 mg weekly
same,Other adverse events attributed to M4N,[2]; in vivo,No other adverse events
same,Relation of SAEs to study medication,[2]; in vivo,unlikely or not related to study medication
same,Serious Adverse Events reported,[2]; in vivo,6
same,Subjects with Serious Adverse Events,[2]; in vivo,4 subjects
same,Subjects with severe radiating pain on injection,[2]; in vivo,One
same,Subjects with sporadic mild elevations in LFTs,[2]; in vivo,2 subjects
same,Subjects with drug related tumor necrosis after injection,[2]; of 6 subjects receiving three doses,5 subjects
same,Patients with radiologically confirmed tumor volume reduction,[2]; of the six patients completing three doses,three
same,Efficacy in terms of induction of necrosis,[2]; [7],over 80%
same,Quantity of M4N in each tissue,"[3]; 2 hours post-feeding, 30 mg oral",< 2 ng per gram tissue
same,M4N levels,[3]; 8 hours post-feeding,decreased in nearly all organs
same,M4N (ng)/organ dry weight (g),"[3]; Bladder, 2 hours after oral 30 mg M4N in castor oil",2.34 ng/g
same,M4N (ng)/organ dry weight (g),"[3]; Bladder, 4 hours after oral 30 mg M4N in castor oil",1.69 ng/g
same,M4N (ng)/organ dry weight (g),"[3]; Bladder, 8 hours after oral 30 mg M4N in castor oil",0 ng/g
same,M4N (ng)/organ dry weight (g),"[3]; Blood, 2 hours after oral 30 mg M4N in castor oil",0.5 ng/g
same,M4N (ng)/organ dry weight (g),"[3]; Blood, 4 hours after oral 30 mg M4N in castor oil",2.08 ng/g
same,M4N (ng)/organ dry weight (g),"[3]; Blood, 8 hours after oral 30 mg M4N in castor oil",0 ng/g
same,M4N (ng)/organ dry weight (g),"[3]; Caecum, 2 hours after oral 30 mg M4N in castor oil",1.11 ng/g
same,M4N (ng)/organ dry weight (g),"[3]; Caecum, 4 hours after oral 30 mg M4N in castor oil",4.38 ng/g
same,M4N (ng)/organ dry weight (g),"[3]; Caecum, 8 hours after oral 30 mg M4N in castor oil",6.55 ng/g
same,M4N (ng)/organ dry weight (g),"[3]; Fat, 2 hours after oral 30 mg M4N in castor oil",0.11 ng/g
same,M4N (ng)/organ dry weight (g),"[3]; Fat, 4 hours after oral 30 mg M4N in castor oil",0 ng/g
same,M4N (ng)/organ dry weight (g),"[3]; Fat, 8 hours after oral 30 mg M4N in castor oil",0 ng/g
same,M4N (ng)/organ dry weight (g),"[3]; Heart, 2 hours after oral 30 mg M4N in castor oil",0.83 ng/g
same,M4N (ng)/organ dry weight (g),"[3]; Heart, 4 hours after oral 30 mg M4N in castor oil",0.11 ng/g
same,M4N (ng)/organ dry weight (g),"[3]; Heart, 8 hours after oral 30 mg M4N in castor oil",1.16 ng/g
same,M4N (ng)/organ dry weight (g),"[3]; Kidneys, 2 hours after oral 30 mg M4N in castor oil",0.12 ng/g
same,M4N (ng)/organ dry weight (g),"[3]; Kidneys, 4 hours after oral 30 mg M4N in castor oil",0.61 ng/g
same,M4N (ng)/organ dry weight (g),"[3]; Kidneys, 8 hours after oral 30 mg M4N in castor oil",0 ng/g
same,M4N (ng)/organ dry weight (g),"[3]; Lg. Intestine, 2 hours after oral 30 mg M4N in castor oil",0.24 ng/g
same,M4N (ng)/organ dry weight (g),"[3]; Lg. Intestine, 4 hours after oral 30 mg M4N in castor oil",8.24 ng/g
same,M4N (ng)/organ dry weight (g),"[3]; Lg. Intestine, 8 hours after oral 30 mg M4N in castor oil",2.68 ng/g
same,M4N (ng)/organ dry weight (g),"[3]; Liver, 2 hours after oral 30 mg M4N in castor oil",0.05 ng/g
same,M4N (ng)/organ dry weight (g),"[3]; Liver, 4 hours after oral 30 mg M4N in castor oil",0.52 ng/g
same,M4N (ng)/organ dry weight (g),"[3]; Liver, 8 hours after oral 30 mg M4N in castor oil",0 ng/g
same,M4N (ng)/organ dry weight (g),"[3]; Lungs, 2 hours after oral 30 mg M4N in castor oil",0.43 ng/g
same,M4N (ng)/organ dry weight (g),"[3]; Lungs, 4 hours after oral 30 mg M4N in castor oil",0 ng/g
same,M4N (ng)/organ dry weight (g),"[3]; Lungs, 8 hours after oral 30 mg M4N in castor oil",2.7 ng/g
same,M4N (ng)/organ dry weight (g),"[3]; Pancreas, 2 hours after oral 30 mg M4N in castor oil",0.57 ng/g
same,M4N (ng)/organ dry weight (g),"[3]; Pancreas, 4 hours after oral 30 mg M4N in castor oil",24.69 ng/g
same,M4N (ng)/organ dry weight (g),"[3]; Pancreas, 8 hours after oral 30 mg M4N in castor oil",2.97 ng/g
same,M4N (ng)/organ dry weight (g),"[3]; Seminal Vesicles, 2 hours after oral 30 mg M4N in castor oil",0.21 ng/g
same,M4N (ng)/organ dry weight (g),"[3]; Seminal Vesicles, 4 hours after oral 30 mg M4N in castor oil",0.37 ng/g
same,M4N (ng)/organ dry weight (g),"[3]; Seminal Vesicles, 8 hours after oral 30 mg M4N in castor oil",0 ng/g
same,M4N (ng)/organ dry weight (g),"[3]; Small Intestine, 2 hours after oral 30 mg M4N in castor oil",0.09 ng/g
same,M4N (ng)/organ dry weight (g),"[3]; Small Intestine, 4 hours after oral 30 mg M4N in castor oil",8.42 ng/g
same,M4N (ng)/organ dry weight (g),"[3]; Small Intestine, 8 hours after oral 30 mg M4N in castor oil",5.53 ng/g
same,M4N (ng)/organ dry weight (g),"[3]; Spleen, 2 hours after oral 30 mg M4N in castor oil",1.1 ng/g
same,M4N (ng)/organ dry weight (g),"[3]; Spleen, 4 hours after oral 30 mg M4N in castor oil",0.16 ng/g
same,M4N (ng)/organ dry weight (g),"[3]; Spleen, 8 hours after oral 30 mg M4N in castor oil",0 ng/g
same,M4N (ng)/organ dry weight (g),"[3]; Stomach, 2 hours after oral 30 mg M4N in castor oil",0.23 ng/g
same,M4N (ng)/organ dry weight (g),"[3]; Stomach, 4 hours after oral 30 mg M4N in castor oil",45.03 ng/g
same,M4N (ng)/organ dry weight (g),"[3]; Stomach, 8 hours after oral 30 mg M4N in castor oil",33.9 ng/g
same,M4N present in tissue,"[3]; pancreas, 4 hours post-feeding",Significant quantities
same,Time of peak M4N levels,"[3]; post-feeding, single oral 30 mg",roughly 4 hours
same,Dose delivered without drug-related toxicity,"head and neck cancer; for up to five days, with or without concomitant G4N 20 mg per day",≤ 20 mg per day
same,Patients remaining disease free,"head and neck cancer; long-term follow ups, M4N with or without G4N, then surgical resection",64%
same,Efficacy in terms of induction of necrosis,head and neck cancer; [7],over 80%
same,"Tumor Volume Increase (%) - 21 Days Treatment, M4N-Treatment","[4]; Hep 3B xenograft, 2 mg M4N i.p. daily for 3 weeks",113%
same,Ratio of Mean M4N-Treated Tumor Size to Control Tumor Size,"[4]; Hep 3B xenograft, 2 mg M4N i.p. daily, 21 days",19.3%
same,Reduction in mean tumor volume versus control,"[4]; Hep 3B, after 21 days systemic M4N treatment",80%
same,DOTV: number of tumors with decrease in volume from the original tumor volume,[4]; [8],2
same,IOTV: number of tumors with increase in volume from the original tumor volume,[4]; [8],5
same,Reduction in mean tumor volume versus control,"[5]; MCF-7, after 21 days systemic M4N treatment",74%
same,DOTV: number of tumors with decrease in volume from the original tumor volume,[5]; [9],7
same,IOTV: number of tumors with increase in volume from the original tumor volume,[5]; [9],3
same,"Tumor Volume Increase (%) - 21 Days Treatment, M4N-Treatment","[5]; MCF-7 xenograft, 2 mg M4N i.p. daily for 3 weeks",84%
same,Ratio of Mean M4N-Treated Tumor Size to Control Tumor Size,"[5]; MCF-7 xenograft, 2 mg M4N i.p. daily, 21 days",25.5%
